Assay results from patent publication US20240400589A1, “4-AMINOPHENYLPHOSPHO[…] FOR BLOCKING C-REACTIVE PROTEIN” (Pentracor GmbH, priority 2021, published 2024).
Read-outs that look alike come from different tables or passages of the source. Where a SMILES comes first, the peptide text is derived from it. The star is where a group is joined. X1 = C[N+](C)(C)CCOP(=O)([O-])Oc1ccc(N*)cc1

Columns and labels:
[1] = target: T1, CRP (CRP-containing human plasma) (Homo sapiens, UniProt P02741); assay: Inhibition of CRP binding to a plate-coated BSA-APPC construct
T1 construct: from tissue; host or cells: human plasma
T1 sequence (P02741 19-224): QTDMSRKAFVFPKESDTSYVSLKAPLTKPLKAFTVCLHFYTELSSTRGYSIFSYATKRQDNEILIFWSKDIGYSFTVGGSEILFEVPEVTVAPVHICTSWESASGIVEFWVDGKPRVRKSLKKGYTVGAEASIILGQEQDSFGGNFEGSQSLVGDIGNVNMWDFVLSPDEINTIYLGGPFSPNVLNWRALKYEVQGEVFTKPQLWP
Procedure: A microtiter plate was coated with 100 μg/mL of a BSA-APPC construct, which binds CRP in a calcium-dependent manner, for 1 hour at room temperature (coating buffer: 0.1 M NaHCO3). Subsequently, 4 washes with 400 μl binding buffer (0.1 M Tris, 0.2 M NaCl, 2 mM CaCl2)) and non-specific binding sites were saturated with block solution (1% casein, 0.9% NaCl, 0.001% thiomersal) for 1 h at room temperature or overnight at 2-8° C.
Afterwards, the block solution was removed and the samples were applied in binding buffer. CRP-containing human plasma was diluted to 50 ng/mL CRP and applied either pure or together with different concentrations (0.25-3 mM) of the various inhibitors 1, 4, 5 and APPC and incubated for 1.5 h at room temperature with horizontal shaking (600 rpm). The plate was then washed again as described above.
After washing, 100 μL of a POD-labelled rabbit anti-huCRP antibody (final concentration: 25 ng/mL) in calcium-containing block solution (final concentration of calcium 4 mM) was added and the plate was incubated for 1.5 h at room temperature with shaking.
The plate was then washed again as described above. Development was carried out by adding 100 μl substrate buffer (0.2 M citric acid, 0.01% H2O2, 100 μg/mL TMB). The colour reaction was stopped by adding 50 μL of 1 M H2SO4 and the absorbance was measured at 450 nm. The absorbance at 655 nm (turbidity) was subtracted as background.
For the determination of inhibition, the OD of the CRP with inhibitor was normalised to the OD of the CRP without inhibitor:
The relative OD was then plotted against the concentration of stabilised APPC constructs in the batch. Only APPC was used as a comparative sample. It is clear that constructs 1 and 5 or 3 and APPC show an inhibition curve that is identical within the measurement uncertainty. […] For APPC/3, the corresponding concentration is 0.7±0.06 mmol/L. Thus, all stabilised APPC constructs show a good inhibition capacity.

huCRP [2] = target: T2, huCRP (Homo sapiens, UniProt P02741); assay: ELISA: binding of CRP to solid phase-fixed biotin-D-Glu(APPC)-NH2 on streptavidin-coated microtiter plates; conditions: for Optical Density (OD): mean of duplicates
T2 sequence (P02741 19-224): T1 sequence (P02741 19-224)
Procedure: Streptavidin-coated microtiter plates were incubated with a solution containing biotin-D-Glu(APPC)—NH2) (2) and then washed with phosphate buffer (PBS). The reactive parts of the MTP surface were then blocked with BSA solution (a standard procedure). CRP was then added in a concentration range of 31-500 ng/ml and incubated (see table below). After renewed washing, the bound CRP was detected using a murine monoclonal antibody (DH7) against CRP and a secondary, POD-conjugated anti-mouse antibody, followed by substrate development

huCRP [3] = target: T2, huCRP; assay: ELISA: binding of free CRP and free biotin-D-Glu(APPC)-NH2 in solution, complex captured on streptavidin plates; conditions: for Optical Density (OD): mean of duplicates
Procedure: CRP and compound 2 were incubated in a reaction vessel for 1 h at room temperature for complexation. The final concentrations were 10 μg/ml CRP (MW approx. 125 KD) and 2 μg/ml compound 2 (MW approx. 1 KD). The solution was then added to streptavidin-coated microtiter plates (MTP) at the dilution levels indicated in Tab. 2 at […] each and incubated with a block solution (Roche) for 30 min at room temperature. The MTPs were then washed 3 times. Using the in house monoclonal antibody “DH7” specific for huCRP and a peroxidase-conjugated secondary antibody (anti-mouse) as well as the substrate TMB, the huCRP previously bound to compound 2 was detected.

[4] = 50 ng/mL CRP from human plasma, inhibitor 0.25-3 mM, BSA-APPC coated plate, read-out: 50% inhibitor concentration (IC50)

Compound: C[N+](C)(C)CCOP(=O)([O-])Oc1ccc(N)cc1 [APPC, 4-aminophenylphosphocholine, reference compound]
- IC50 [1, 4]: 700 ± 60 µM

Compound: C[N+](C)(C)CCOP(=O)([O-])Oc1ccc(NC(=O)CC[C@@H](N)C(N)=O)cc1 [Compound 1, D-Glu(APPC)—NH2]
- IC50 [1, 4]: 1600 ± 100 µM

Compound: C[N+](C)(C)CCOP(=O)([O-])Oc1ccc(NC(=O)CC[C@@H](NC(=O)CCCC[C@@H]2SC[C@@H]3NC(=O)N[C@@H]32)C(N)=O)cc1 [Compound 2, Biotin-D-Glu(APPC)—NH2]
- Optical Density (OD) (huCRP [2]; CRP 31 ng/ml): 1.061
- Optical Density (OD) (huCRP [2]; CRP 62.5 ng/ml): 1.512
- Optical Density (OD) (huCRP [2]; CRP 125 ng/ml): 2.081
- Optical Density (OD) (huCRP [2]; CRP 250 ng/ml): 2.627
- Optical Density (OD) (huCRP [2]; CRP 500 ng/ml): 3.242
- Binding to CRP (CRP binding curve, FIG. 1) (huCRP [2]; solid phase-fixed compound): binds to CRP
- Optical Density (OD) (huCRP [3]; complex dilution 1:20, 10 μg/ml CRP + 2 μg/ml compound 2): 2.685
- Optical Density (OD) (huCRP [3]; complex dilution 1:40): 2.219
- Optical Density (OD) (huCRP [3]; complex dilution 1:80): 1.801
- Optical Density (OD) (huCRP [3]; complex dilution 1:160): 1.242
- Optical Density (OD) (huCRP [3]; complex dilution 1:320): 0.875
- Optical Density (OD) (huCRP [3]; complex dilution 1:640): 0.548
- Optical Density (OD) (huCRP [3]; complex dilution 1:1280): 0.381
- Binding of CRP in solution (dilution series, FIG. 2) (huCRP [3]; free CRP and free compound, 1 h room temperature): binds CRP in solution

Compound: CC(=O)N1CCC[C@H]1C(=O)N[C@@H](C)C(=O)N[C@@H](CO)C(=O)N[C@@H](CCC(=O)Nc1ccc(OP(=O)([O-])OCC[N+](C)(C)C)cc1)C(=O)N1CCC[C@H]1C(=O)N[C@@H](C)C(=O)N[C@@H](CO)C(N)=O [Compound 5] (Ac-PASE(X1)PAS-NH2)
- IC50 [1]: 1600 ± 100 µM
